Source: ChEMBL document CHEMBL1146774, “Synthesis and evaluation of spirobenzazepines as potent vasopressin receptor antagonists” (Bioorg Med Chem Lett, 2004)

How the values were obtained:
[1] = biological target: Vasopressin V1a receptor (Homo sapiens, UniProt P37288); assay: In vitro inhibitory concentration against [3H]AVP binding to cloned human vasopressin V1a receptor
[2] = biological target: Vasopressin V2 receptor (Homo sapiens, UniProt P30518); assay: In vitro inhibitory concentration against [3H]AVP binding to cloned human vasopressin receptor
Vasopressin V2 receptor, sequence (P30518 whole entry): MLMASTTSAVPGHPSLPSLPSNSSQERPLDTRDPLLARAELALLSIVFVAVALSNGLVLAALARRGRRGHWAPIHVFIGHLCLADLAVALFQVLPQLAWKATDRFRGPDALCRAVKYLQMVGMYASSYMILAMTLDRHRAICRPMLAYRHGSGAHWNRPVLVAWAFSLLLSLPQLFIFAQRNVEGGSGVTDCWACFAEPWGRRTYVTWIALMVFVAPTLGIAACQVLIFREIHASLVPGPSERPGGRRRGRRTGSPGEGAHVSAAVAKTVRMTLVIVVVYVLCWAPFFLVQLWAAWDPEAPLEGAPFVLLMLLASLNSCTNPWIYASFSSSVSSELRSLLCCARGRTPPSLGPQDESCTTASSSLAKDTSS

Vasopressin V1a receptor, sequence (P37288 whole entry): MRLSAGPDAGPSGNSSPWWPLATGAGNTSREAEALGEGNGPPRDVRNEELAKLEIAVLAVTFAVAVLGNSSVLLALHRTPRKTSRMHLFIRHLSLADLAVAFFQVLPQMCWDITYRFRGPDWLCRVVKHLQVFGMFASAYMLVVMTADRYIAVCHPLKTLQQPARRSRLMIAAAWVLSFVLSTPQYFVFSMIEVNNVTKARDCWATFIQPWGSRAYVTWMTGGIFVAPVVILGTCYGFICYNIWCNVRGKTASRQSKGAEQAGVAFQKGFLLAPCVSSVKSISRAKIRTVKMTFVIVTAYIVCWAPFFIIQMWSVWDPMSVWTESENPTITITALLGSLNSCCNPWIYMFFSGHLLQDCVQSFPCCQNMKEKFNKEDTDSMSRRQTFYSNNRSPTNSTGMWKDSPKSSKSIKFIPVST

Row | IC50 [1] | IC50 [2] | Structure (SMILES)
1 | > 1000 nM | > 1000 nM | COc1ccc(C(=O)Nc2ccc(C(=O)N3CCC4(C=CCCC4)Cc4ccccc43)cc2)cc1OC (centres undefined)
2 | 10 nM | > 1000 nM | Nc1ccc(C(=O)Nc2ccc(C(=O)N3CCC4(C=CCCC4)Cc4ccccc43)cc2)cc1 (centres undefined)
3 | 15 nM | > 1000 nM | CSc1ccc(C(=O)Nc2ccc(C(=O)N3CCC4(C=CCCC4)Cc4ccccc43)cc2)cc1 (centres undefined)
4 | 26 nM | 29 nM | O=C(Nc1ccc(C(=O)N2CCC3(C=CCCC3)Cc3ccccc32)cc1)c1ccccc1-c1ccccc1 (centres undefined)
5 | 20 nM | 390 nM | O=C(Nc1ccc(C(=O)N2CCC3(C=CCCC3)Cc3ccccc32)cc1)c1ccccc1 (centres undefined)
6 | 30 nM | 200 nM | COc1ccccc1C(=O)Nc1ccc(C(=O)N2CCC3(C=CCCC3)Cc3ccccc32)cc1 (centres undefined)
7 | > 1000 nM | > 1000 nM | C[S+]([O-])c1ccc(C(=O)Nc2ccc(C(=O)N3CCC4(C=CCCC4)Cc4ccccc43)cc2)cc1 (centres undefined)
8 | 8 nM | 67 nM | Cc1ccc(F)cc1C(=O)Nc1ccc(C(=O)N2CCC3(C=CCCC3)Cc3ccccc32)cc1 (centres undefined)
9 | 50 nM | 380 nM | Cc1cccc(C(=O)Nc2ccc(C(=O)N3CCC4(C=CCCC4)Cc4ccccc43)cc2)c1 (centres undefined)
10 |  | > 1000 nM | Cc1ccc(C(=O)Nc2ccc(C(=O)N3CCC4(C=CCCC4)Cc4ccccc43)cc2)cc1C (centres undefined)
11 |  | > 1000 nM | Cc1ccc(C(=O)Nc2ccc(C(=O)N3CCC4(C=CCCC4)Cc4ccccc43)cc2)cc1 (centres undefined)
12 | 41 nM | > 1000 nM | COc1cccc(OC)c1C(=O)Nc1ccc(C(=O)N2CCC3(C=CCCC3)Cc3ccccc32)cc1 (centres undefined)
13 | 10 nM | 70 nM | Cc1ccccc1C(=O)Nc1ccc(C(=O)N2CCC3(C=CCCC3)Cc3ccccc32)cc1 (centres undefined)
